Measurements from patent US10377753B2, “Substituted 4-azaindoles and their use as GluN2B receptor modulators” (Janssen Pharmaceutica NV, priority 2015, dated 2019).
pIC50: −log10 of the molar value. Structures can show the parent of a compound that is named as a salt.

Target: cloned human NR1/NR2B ion channels (Homo sapiens (Human), UniProt Q05586+Q13224)
Test: HNR2BC: effects of test articles on cloned human NR1/NR2B ion channels expressed in mammalian cells (FLIPR calcium flux)
Format: cell-based
Details: cloned human NR1/NR2B ion channels, Table 5
How it was run: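 In a stable Tet-On-induced cell line expressing human GluN1/GluN2B, Calcium 5-loaded cells were preincubated 5 min with compound, then stimulated 5 min with glutamate at ~EC80 plus 10 μM glycine, in pH 7.4 HEPES buffer. FLIPR calcium fluorescence was normalized to control wells.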

cloned human NR1/NR2B ion channels, sequence (Q13224 27-1484, other chains not shown): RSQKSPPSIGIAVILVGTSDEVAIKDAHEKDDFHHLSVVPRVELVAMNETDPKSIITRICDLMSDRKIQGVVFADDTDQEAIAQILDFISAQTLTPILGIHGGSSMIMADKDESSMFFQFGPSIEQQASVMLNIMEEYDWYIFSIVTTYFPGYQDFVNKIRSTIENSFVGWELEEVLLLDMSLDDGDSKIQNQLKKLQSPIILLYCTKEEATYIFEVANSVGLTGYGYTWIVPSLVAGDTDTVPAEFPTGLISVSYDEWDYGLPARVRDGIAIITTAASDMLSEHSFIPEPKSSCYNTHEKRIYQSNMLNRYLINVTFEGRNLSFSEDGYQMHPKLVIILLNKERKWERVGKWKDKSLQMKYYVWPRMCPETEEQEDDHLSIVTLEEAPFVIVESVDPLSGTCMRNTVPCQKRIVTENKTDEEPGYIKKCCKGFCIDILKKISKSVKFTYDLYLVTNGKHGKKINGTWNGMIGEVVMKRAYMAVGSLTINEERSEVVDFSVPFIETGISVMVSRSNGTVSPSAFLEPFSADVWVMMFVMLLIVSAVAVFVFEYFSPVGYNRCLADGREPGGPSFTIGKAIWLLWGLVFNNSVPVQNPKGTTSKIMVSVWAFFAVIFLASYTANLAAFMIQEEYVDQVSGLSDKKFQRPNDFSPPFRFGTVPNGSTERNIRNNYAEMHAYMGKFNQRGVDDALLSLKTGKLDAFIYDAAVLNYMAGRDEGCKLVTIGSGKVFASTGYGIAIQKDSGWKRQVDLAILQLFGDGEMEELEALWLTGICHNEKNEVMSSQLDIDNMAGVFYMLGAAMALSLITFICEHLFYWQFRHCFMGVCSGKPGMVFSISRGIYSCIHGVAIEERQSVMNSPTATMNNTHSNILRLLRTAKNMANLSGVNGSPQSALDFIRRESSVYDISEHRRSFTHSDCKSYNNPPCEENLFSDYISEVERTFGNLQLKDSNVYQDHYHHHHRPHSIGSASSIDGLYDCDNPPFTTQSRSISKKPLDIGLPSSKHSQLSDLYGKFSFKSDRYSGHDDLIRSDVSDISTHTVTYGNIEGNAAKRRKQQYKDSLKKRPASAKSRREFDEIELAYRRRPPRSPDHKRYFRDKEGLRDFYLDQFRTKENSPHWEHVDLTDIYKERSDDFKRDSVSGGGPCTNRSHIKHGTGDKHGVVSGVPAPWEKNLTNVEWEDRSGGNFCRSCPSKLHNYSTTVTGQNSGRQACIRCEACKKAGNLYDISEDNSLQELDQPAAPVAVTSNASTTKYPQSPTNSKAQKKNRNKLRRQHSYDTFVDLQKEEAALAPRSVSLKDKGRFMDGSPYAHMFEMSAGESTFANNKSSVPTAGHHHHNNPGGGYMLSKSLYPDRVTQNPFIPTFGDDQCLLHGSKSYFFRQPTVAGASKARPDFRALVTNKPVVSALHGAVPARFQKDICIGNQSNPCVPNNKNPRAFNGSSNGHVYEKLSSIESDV

Question: How did the pIC50 turn out when `O=C(Cn1cc(Cl)c2ncc(-c3ccc(F)cc3)cc21)C1CC1` [Example 384, 2-[3-Chloro-6-(4-fluorophenyl)pyrrolo[3,2-b]pyridin-1-yl]-1-cyclopropyl-ethanone] was run?
Answer: Its pIC50 is 7.70.

Question: How did the pIC50 turn out when `O=C(Cn1ccc2ncc(-c3ccsc3)cc21)N1CCC1` [Example 385, 1-(Azetidin-1-yl)-2-[6-(3-thienyl)pyrrolo[3,2-b]pyridin-1-yl]ethanone trifluoroacetate salt] was run?
Answer: The pIC50 was 7.70.

Question: How did the pIC50 turn out when `CN(C)C(=O)Cn1cc(F)c2ncc(-c3cccs3)cc21` [Example 387, 2-[3-Fluoro-6-(2-thienyl)pyrrolo[3,2-b]pyridin-1-yl]-N,N-dimethyl-acetamide] was run?
Answer: Its pIC50 is 7.20.

Question: With `CCc1ccc(-c2cnc3ccn(CC(=O)N(C)C)c3c2)s1` [Example 388, 2-[6-(5-Ethyl-2-thienyl)pyrrolo[3,2-b]pyridin-1-yl]-N,N-dimethyl-acetamide trifluoroacetate salt] as the compound, how does the pIC50 read?
Answer: The pIC50 was 6.10.

Question: How did the pIC50 turn out when `O=C(Cn1cc(F)c2ncc(-c3cccs3)cc21)N1CCC1` [Example 389, 1-(Azetidin-1-yl)-2-[3-fluoro-6-(2-thienyl)pyrrolo[3,2-b]pyridin-1-yl]ethanone trifluoroacetate salt] was run?
Answer: The pIC50 was 6.80.

Question: `Cc1ccc(-c2cnc3c(F)cn(CC(=O)N(C)C)c3c2)s1` [Example 390, 2-[3-Fluoro-6-(5-methyl-2-thienyl)pyrrolo[3,2-b]pyridin-1-yl]-N,N-dimethyl-acetamide] was tested. Which pIC50 did it give?
Answer: Its pIC50 is 6.50.

Question: With `CN(C)C(=O)Cn1ccc2ncc(-c3cc(Cl)cs3)cc21` [Example 391, 2-[6-(4-Chloro-2-thienyl)pyrrolo[3,2-b]pyridin-1-yl]-N,N-dimethyl-acetamide trifluoroacetate salt] as the compound, how does the pIC50 read?
Answer: The pIC50 was 7.30.

Question: How did the pIC50 turn out when `CCc1ccc(-c2cnc3ccn(CC(=O)N4CCC4)c3c2)s1` [Example 392, 1-(Azetidin-1-yl)-2-[6-(5-ethyl-2-thienyl)pyrrolo[3,2-b]pyridin-1-yl]ethanone trifluoroacetate salt] was run?
Answer: The pIC50 was 7.20.

Question: With `CCc1ccc(-c2cnc3c(F)cn(CC(=O)N(C)C)c3c2)s1` [Example 393, 2-[6-(5-Ethyl-2-thienyl)-3-fluoro-pyrrolo[3,2-b]pyridin-1-yl]-N,N-dimethyl-acetamide] as the compound, how does the pIC50 read?
Answer: Its pIC50 is 6.90.

Question: `O=C(Cn1ccc2ncc(-c3cc(Cl)cs3)cc21)N1CCC1` [Example 394, 1-(Azetidin-1-yl)-2-[6-(4-chloro-2-thienyl)pyrrolo[3,2-b]pyridin-1-yl]ethanone trifluoroacetate salt] was tested. Which pIC50 did it give?
Answer: Its pIC50 is 6.80.

Question: With `O=C(Cn1cc(F)c2ncc(-c3cccs3)cc21)N1CC(F)C1` [Example 395, 1-(3-Fluoroazetidin-1-yl)-2-[3-fluoro-6-(2-thienyl)pyrrolo[3,2-b]pyridin-1-yl]ethanone trifluoroacetate salt] as the compound, how does the pIC50 read?
Answer: Its pIC50 is 7.30.

Question: How did the pIC50 turn out when `CN(C)C(=O)Cn1cc(F)c2ncc(-c3cc(Cl)cs3)cc21` [Example 396, 2-[6-(4-Chloro-2-thienyl)-3-fluoro-pyrrolo[3,2-b]pyridin-1-yl]-N,N-dimethyl-acetamide] was run?
Answer: The pIC50 was 6.30.

Question: With `O=C(Cn1cc(F)c2ncc(-c3cc(Cl)cs3)cc21)N1CCC1` [Example 397, 1-(Azetidin-1-yl)-2-[6-(4-chloro-2-thienyl)-3-fluoro-pyrrolo[3,2-b]pyridin-1-yl]ethanone trifluoroacetate salt] as the compound, how does the pIC50 read?
Answer: Its pIC50 is 7.30.

Question: With `CCc1ccc(-c2cnc3c(F)cn(CC(=O)N4CC(F)C4)c3c2)s1` [Example 398, 2-[6-(5-Ethyl-2-thienyl)-3-fluoro-pyrrolo[3,2-b]pyridin-1-yl]-1-(3-fluoroazetidin-1-yl)ethanone trifluoroacetate salt] as the compound, how does the pIC50 read?
Answer: The pIC50 was 7.40.

Question: With `O=C(Cn1ccc2ncc(-c3cccs3)cc21)N1CCC1` [Example 399, 1-(Azetidin-1-yl)-2-[6-(2-thienyl)pyrrolo[3,2-b]pyridin-1-yl]ethanone] as the compound, how does the pIC50 read?
Answer: The pIC50 was 6.80.

Question: With `CN(C)C(=O)Cn1ccc2ncc(-c3cccs3)cc21` [Example 400, N,N-Dimethyl-2-[6-(2-thienyl)pyrrolo[3,2-b]pyridin-1-yl]acetamide] as the compound, how does the pIC50 read?
Answer: Its pIC50 is 6.30.

Question: With `CCc1ccc(-c2cnc3c(F)cn(CC(=O)N4CCC4)c3c2)s1` [Example 401, 1-(Azetidin-1-yl)-2-[6-(5-ethyl-2-thienyl)-3-fluoro-pyrrolo[3,2-b]pyridin-1-yl]ethanone] as the compound, how does the pIC50 read?
Answer: The pIC50 was 6.20.

Question: `Cc1ccc(-c2cnc3c(F)cn(CC(=O)N4CC(F)C4)c3c2)s1` [Example 402, 1-(3-Fluoroazetidin-1-yl)-2-[3-fluoro-6-(5-methyl-2-thienyl)pyrrolo[3,2-b]pyridin-1-yl]ethanone trifluoroacetate salt] was tested. Which pIC50 did it give?
Answer: Its pIC50 is 6.60.

Question: `O=C(Cn1ccc2ncc(-c3sccc3Cl)cc21)N1CCC1` [Example 403, 1-(Azetidin-1-yl)-2-[6-(3-chloro-2-thienyl)pyrrolo[3,2-b]pyridin-1-yl]ethanone] was tested. Which pIC50 did it give?
Answer: The pIC50 was 7.00.

Question: `Cc1ncc(-c2cnc3ccn(CC(=O)N4CCC4)c3c2)s1` [Example 404, 1-(Azetidin-1-yl)-2-[6-(2-methylthiazol-5-yl)pyrrolo[3,2-b]pyridin-1-yl]ethanone] was tested. Which pIC50 did it give?
Answer: The pIC50 was 7.50.

Question: `O=C(Cn1ccc2ncc(-c3cncs3)cc21)N1CCC1` [Example 405, 1-(Azetidin-1-yl)-2-(6-thiazol-5-ylpyrrolo[3,2-b]pyridin-1-yl)ethanone] was tested. Which pIC50 did it give?
Answer: Its pIC50 is 5.00.

Question: With `Cc1csc(-c2cnc3c(Cl)cn(CC(=O)N4CCC4)c3c2)c1` [Example 407, 1-(Azetidin-1-yl)-2-[3-chloro-6-(4-methyl-2-thienyl)pyrrolo[3,2-b]pyridin-1-yl]ethanone] as the compound, how does the pIC50 read?
Answer: Its pIC50 is 5.20.

Question: How did the pIC50 turn out when `CCc1ccc(-c2cnc3c(Cl)cn(CC(=O)N4CCC4)c3c2)s1` [Example 408, 1-(Azetidin-1-yl)-2-[3-chloro-6-(5-ethyl-2-thienyl)pyrrolo[3,2-b]pyridin-1-yl]ethanone] was run?
Answer: The pIC50 was 7.40.

Question: `O=C(Cn1cc(Cl)c2ncc(-c3cccs3)cc21)N1CCC1` [Example 409, 1-(Azetidin-1-yl)-2-[3-chloro-6-(2-thienyl)pyrrolo[3,2-b]pyridin-1-yl]ethanone] was tested. Which pIC50 did it give?
Answer: Its pIC50 is 6.70.

Question: How did the pIC50 turn out when `Cc1ccc(-c2cnc3c(Cl)cn(CC(=O)N4CCC4)c3c2)s1` [Example 410, 1-(Azetidin-1-yl)-2-[3-chloro-6-(5-methyl-2-thienyl)pyrrolo[3,2-b]pyridin-1-yl]ethanone] was run?
Answer: The pIC50 was 6.50.

Question: With `CN(CC(F)(F)F)C(=O)Cn1ccc2ncc(-c3ccc(F)cc3)cc21` [Example 411, 2-[6-(4-Fluorophenyl)pyrrolo[3,2-b]pyridin-1-yl]-N-methyl-N-(2,2,2-trifluoroethyl)acetamide] as the compound, how does the pIC50 read?
Answer: Its pIC50 is 7.60.

Question: How did the pIC50 turn out when `Cc1ccc(-c2cnc3c(Cl)cn(CC(=O)N4CC(F)C4)c3c2)s1` [Example 412, 2-[3-Chloro-6-(5-methyl-2-thienyl)pyrrolo[3,2-b]pyridin-1-yl]-1-(3-fluoroazetidin-1-yl)ethanone] was run?
Answer: Its pIC50 is 5.10.

Question: `O=C(Cn1cc(Cl)c2ncc(-c3ccc(Cl)s3)cc21)N1CC(F)C1` [Example 413, 2-[3-Chloro-6-(5-chloro-2-thienyl)pyrrolo[3,2-b]pyridin-1-yl]-1-(3-fluoroazetidin-1-yl)ethanone] was tested. Which pIC50 did it give?
Answer: Its pIC50 is 7.30.

Question: How did the pIC50 turn out when `CN(C)C(=O)Cn1cc(Cl)c2ncc(-c3cc(Cl)cs3)cc21` [Example 414, 2-[3-Chloro-6-(4-chloro-2-thienyl)pyrrolo[3,2-b]pyridin-1-yl]-N,N-dimethyl-acetamide] was run?
Answer: Its pIC50 is 7.40.

Question: With `Cc1cc(-c2cnc3ccn(CC(=O)N(C)CC(F)(F)F)c3c2)ccc1F` [Example 415, 2-[6-(4-Fluoro-3-methyl-phenyl)pyrrolo[3,2-b]pyridin-1-yl]-N-methyl-N-(2,2,2-trifluoroethyl)acetamide] as the compound, how does the pIC50 read?
Answer: The pIC50 was 7.20.

Question: With `Cc1csc(-c2cnc3c(Cl)cn(CC(=O)N4CC(F)C4)c3c2)c1` [Example 416, 2-[3-Chloro-6-(4-methyl-2-thienyl)pyrrolo[3,2-b]pyridin-1-yl]-1-(3-fluoroazetidin-1-yl)ethanone] as the compound, how does the pIC50 read?
Answer: Its pIC50 is 5.60.

Question: With `O=C(Cn1cc(Cl)c2ncc(-c3cccs3)cc21)N1CC(F)C1` [Example 417, 2-[3-Chloro-6-(2-thienyl)pyrrolo[3,2-b]pyridin-1-yl]-1-(3-fluoroazetidin-1-yl)ethanone] as the compound, how does the pIC50 read?
Answer: Its pIC50 is 7.20.

Question: `O=C(Cn1cc(Cl)c2ncc(-c3cc(Cl)cs3)cc21)N1CC(F)C1` [Example 418, 2-[3-Chloro-6-(4-chloro-2-thienyl)pyrrolo[3,2-b]pyridin-1-yl]-1-(3-fluoroazetidin-1-yl)ethanone] was tested. Which pIC50 did it give?
Answer: The pIC50 was 6.30.

Question: `CCN(C)C(=O)Cn1ccc2ncc(-c3ccc(F)cc3)cc21` [Example 419, N-Ethyl-2-[6-(4-fluorophenyl)pyrrolo[3,2-b]pyridin-1-yl]-N-methyl-acetamide] was tested. Which pIC50 did it give?
Answer: Its pIC50 is 7.20.

Question: With `CN(C)C(=O)Cn1cc(Cl)c2ncc(-c3cccs3)cc21` [Example 420, 2-[3-Chloro-6-(2-thienyl)pyrrolo[3,2-b]pyridin-1-yl]-N,N-dimethyl-acetamide] as the compound, how does the pIC50 read?
Answer: Its pIC50 is 6.20.

Question: `CCc1ccc(-c2cnc3c(Cl)cn(CC(=O)N(C)C)c3c2)s1` [Example 421, 2-[3-Chloro-6-(5-ethyl-2-thienyl)pyrrolo[3,2-b]pyridin-1-yl]-N,N-dimethyl-acetamide] was tested. Which pIC50 did it give?
Answer: Its pIC50 is 6.20.

Question: How did the pIC50 turn out when `O=C(Cn1cc(Cl)c2ncc(-c3cc(Cl)cs3)cc21)N1CCC1` [Example 422, 1-(Azetidin-1-yl)-2-[3-chloro-6-(4-chloro-2-thienyl)pyrrolo[3,2-b]pyridin-1-yl]ethanone] was run?
Answer: The pIC50 was 6.70.

Question: With `CN(C)C(=O)Cn1cc(Cl)c2ncc(-c3ccc(Cl)s3)cc21` [Example 423, 2-[3-Chloro-6-(5-chloro-2-thienyl)pyrrolo[3,2-b]pyridin-1-yl]-N,N-dimethyl-acetamide] as the compound, how does the pIC50 read?
Answer: Its pIC50 is 7.40.

Question: `CCc1ccc(-c2cnc3c(Cl)cn(CC(=O)N4CC(F)C4)c3c2)s1` [Example 424, 2-[3-Chloro-6-(5-ethyl-2-thienyl)pyrrolo[3,2-b]pyridin-1-yl]-1-(3-fluoroazetidin-1-yl)ethanone] was tested. Which pIC50 did it give?
Answer: The pIC50 was 7.50.

Question: `CN(C)C(=O)Cn1ccc2ncc(-c3cccc(C(F)(F)F)c3F)cc21` [Example 425, 2-[6-[2-Fluoro-3-(trifluoromethyl)phenyl]pyrrolo[3,2-b]pyridin-1-yl]-N,N-dimethyl-acetamide] was tested. Which pIC50 did it give?
Answer: Its pIC50 is 6.50.

Question: With `Cc1cc(-c2cnc3ccn(CC(=O)N(C)C)c3c2)c(C)s1` [Example 427, 2-[6-(2,5-Dimethyl-3-thienyl)pyrrolo[3,2-b]pyridin-1-yl]-N,N-dimethyl-acetamide] as the compound, how does the pIC50 read?
Answer: Its pIC50 is 7.50.
